Reference: PubChem BioAssay (NCI)
Several values for one entry are separate records, joined by “and”; a condition that tells them apart may be missing. Equal values may be shown once.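 All cell lines were grown in 96-well plates and treated with compound for 48 hours. At the GI50, growth is halved. TGI: total growth inhibition.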

Experiments:
Experiment in all cases: NCI tumour cell line growth inhibition, 48 h
KM20L2 colon = tested on: KM20L2 colon
XF 498 CNS = tested on: XF 498 CNS
DLD-1 colon = tested on: DLD-1 colon
LXFL 529 NSCLC = tested on: LXFL 529 NSCLC
DMS 273 small cell lung = tested on: DMS 273 small cell lung
RXF-631 renal = tested on: RXF-631 renal
MCF7 breast = tested on: MCF7 breast
BT-549 breast = tested on: BT-549 breast
MDA-N = tested on: MDA-N

Row | SMILES | TGI (KM20L2 colon) | TGI (XF 498 CNS) | TGI (DLD-1 colon) | TGI (LXFL 529 NSCLC) | TGI (DMS 273 small cell lung) | TGI (RXF-631 renal) | TGI (MCF7 breast) | TGI (BT-549 breast) | other results
1 | COc1cccc2cc(C)c(C(=O)c3ccccc3)nc12 | > 100 µM | > 100 µM | > 100 µM | > 100 µM | > 100 µM | > 100 µM |  |  | 
2 | C=CCn1c2c(c3ccccc3c1=O)C(=O)c1ccccc1-2 |  |  |  |  |  |  | > 100 µM | > 100 µM | TGI (MDA-N): > 100 µM
3 | CC1=C(C)C(=O)c2c(cc3ccc4ccccc4n23)C1=O |  |  | > 100 µM | > 100 µM | > 100 µM | > 100 µM |  |  | 
4 | Cc1ncc(CN=Cc2ccc(Cl)cc2)c(N)n1 |  |  |  |  |  |  | > 100 µM | > 100 µM | TGI (MDA-N): > 100 µM
5 | Cn1c(=O)nc2n(-c3ccc(Cl)cc3)c3ccc(Cl)cc3nc-2c1=O | 36.7 µM |  |  |  |  |  |  |  | 
6 | Nn1c(-c2ccccc2)nc2ccc(Br)cc2c1=O | > 100 µM | > 100 µM | > 100 µM | > 100 µM | > 100 µM | > 100 µM |  |  | 
7 | Cc1cc2c(c(C#N)c1C)NC(=O)CCC2=O | > 100 µM | > 100 µM | > 100 µM | > 100 µM | > 100 µM | > 100 µM |  |  | 
8 | CN1CCN(CN2C(=O)C3C4C=CC(C3C2=O)C2C3C(=O)N(CN5CCN(C)CC5)C(=O)C3C42)CC1 (stereo not drawn) | 56.8 µM and 40.9 µM and 63.4 µM |  | 49.7 µM and 41 µM and 52.4 µM | 35.9 µM and 32.7 µM and 57.3 µM | 39.4 µM and 30.9 µM and 10.6 µM |  | > 100 µM | 69.6 µM | TGI (MDA-N): 32.5 µM
9 | O=C1CC(O)C=C1Nc1ccc(Cl)cc1 (stereo not drawn) | 37.8 µM |  | > 100 µM | > 100 µM | > 100 µM | > 100 µM |  |  | 
10 | Cc1nc2c(nc1C)C(=O)c1cc(O)ccc1C2=O | > 100 µM |  | > 86.8 µM | > 100 µM | > 100 µM |  |  |  | 
11 | CCOc1ccccc1NC(=O)C(=O)CC(=O)c1c(C)n([O-])c2ccccc2[n+]1=O | > 100 µM |  |  | > 100 µM | > 100 µM |  |  |  | 
12 | COc1cc([C@H]2c3cc4c(cc3O[C@@]3(O)COC(=O)[C@@H]23)OCO4)cc(OC)c1OC | > 100 µM | > 100 µM | > 100 µM |  | > 100 µM | > 100 µM | > 100 µM |  | TGI (MDA-N): > 100 µM
13 | COc1ccc2[nH]c3c(c2c1)CCN(C)CC3 | > 100 µM | > 100 µM | > 100 µM |  | > 100 µM | > 100 µM |  |  | 
14 | C=C1CC2(OC1=O)C(=O)N(CCCCCCCN1C(=O)C3(CC(=C)C(=O)O3)c3ccccc31)c1ccccc12 (stereo not drawn) |  |  |  |  |  |  | 6.9 µM | 9.14 µM | GI50 (MCF7 breast): 1.35 µM; GI50 (BT-549 breast): 2.22 µM
15 | COc1cc(-c2nn(-c3ccc(NC(=O)c4ccc(Cl)c(Cl)c4)cc3)cc2-c2ccncc2)ccc1Cl |  |  |  |  |  |  | > 100 µM | > 100 µM | GI50 (MCF7 breast): 5.53 µM; GI50 (BT-549 breast): > 100 µM
16 | COC(=O)C1CC2(CC3=C1CCCC3)OCCO2 (stereo not drawn) |  | > 100 µM | > 100 µM | > 100 µM | > 100 µM | > 100 µM |  |  | 
17 | O=C(NNc1nc(Cl)nc(N2CCN(C(c3ccccc3)c3ccccc3)CC2)n1)c1ccccc1 |  |  |  |  |  |  | > 100 µM | 3.09 µM | GI50 (MCF7 breast): 6.44 µM; GI50 (BT-549 breast): 1.69 µM
18 | N#CCC(=O)Nc1cccc(C(F)(F)F)c1 | > 100 µM | > 100 µM | > 100 µM | > 100 µM | > 100 µM | > 100 µM |  |  | 
19 | CC(=O)O/C=C(/C=C/OC(C)=O)C(C/C=C(\C)C#CC=C(C)C)OC(C)=O (stereo not drawn) | > 100 µM | > 100 µM | > 100 µM | 37.1 µM | > 100 µM | > 100 µM |  |  | 
20 | N=C1C(c2nc(-c3ccc(Br)cc3)cs2)=C(O)CN1Cc1cccnc1 |  |  |  |  |  |  | > 100 µM | > 100 µM | GI50 (MCF7 breast): 9.76 µM; GI50 (BT-549 breast): 42.6 µM
21 | CC(=O)C1CC(C)=CCC12C(=O)Nc1ccccc12 (stereo not drawn) | > 100 µM | > 100 µM | > 100 µM | > 100 µM | > 100 µM | > 100 µM |  |  | 
22 | CC1=C(C(=O)Nc2c(C)cccc2C)C(c2ccc3c(c2)OCO3)C(C(=O)Nc2c(C)cccc2C)=C(C)N1 | 29 µM |  | 86.8 µM | 43.9 µM |  | 42.3 µM |  |  | 
23 | CNC(P(=O)([O-])[O-])P(=O)([O-])[O-].N.N.[Pt+2] | > 100 µM |  | > 100 µM | > 100 µM | > 100 µM |  |  |  | GI50 (KM20L2 colon): > 100 µM; GI50 (DLD-1 colon): > 100 µM; GI50 (LXFL 529 NSCLC): > 100 µM; GI50 (DMS 273 small cell lung): > 100 µM
24 | CCOC(=O)c1ccc(NC(=O)N2CC(C)OC(C)C2)cc1 (stereo not drawn) |  |  |  |  |  |  | > 100 µM | > 100 µM | GI50 (MCF7 breast): > 100 µM; GI50 (BT-549 breast): > 100 µM
25 | N#Cc1c(Sc2ccccc2N)cccc1Sc1ccccc1N |  |  |  |  |  |  |  |  | GI50 (MCF7 breast): 27.9 µM; GI50 (BT-549 breast): 76.9 µM; GI50 (MDA-N): 49.1 µM
